For one assay, the system named is HCT116 MTAP KO cells. Nature of the assay: Inhibitory activity against cell proliferation (CellTiter Glo, 6 days), HCT116 MTAP KO. In kind it is cell-based. Particulars: for IC50: Homo sapiens, HCT-116, 144 h, HCT116 MTAP KO cells, 6 days, CellTiter Glo, read-out: HCT116 MTAP KO IC50; for Selectivity HCT 116-WT/ HCT116 MTAP KO: ratio of IC50 HCT116-WT / HCT116 MTAP KO. The method in brief: (§1)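 HCT116 wild-type or MTAP-knockout cells (250/well, McCoy's 5A + 10% FBS) treated after overnight culture with 8-point 4-fold dilutions from 10000 nM for 6 days at 37 °C. Viability read by CellTiter Glo luminescence on day 7; IC50 calculated against DMSO controls.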

In a further assay the test system is HCT116-WT cells. Kind of assay: Inhibitory activity against cell proliferation (CellTiter Glo, 6 days), HCT116-WT. Type of assay: cell-based. Conditions: 144 h, HCT116-WT cells, 6 days, CellTiter Glo; read-out: HCT116-WT IC50. An outline of the steps:
as §1

The target in the next assay is PRMT5-MTA (Homo sapiens, UniProt O14744). Kind of assay: Enzymatic inhibitory activity against PRMT5-MTA (AlphaScreen). Type of assay: biochemical. The method in brief:
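PRMT5/[…] (1 nM) was preincubated for 30 min at room temperature with 1 µM […] and 2.5 µM SAM, then exposed to compound (10-point, 3-fold from 1000 nM) for 15 min at 23 °C. Histone H4 substrate (5 nM) was added and reacted for 45 min at 23 °C. Symmetric dimethyl-R3 H4 was detected by AlphaScreen and IC50 calculated.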

Molecules are shown by their SMILES. Read-outs that look alike come from different tables or passages of the source.

PRMT5-MTA, sequence (O14744 whole entry): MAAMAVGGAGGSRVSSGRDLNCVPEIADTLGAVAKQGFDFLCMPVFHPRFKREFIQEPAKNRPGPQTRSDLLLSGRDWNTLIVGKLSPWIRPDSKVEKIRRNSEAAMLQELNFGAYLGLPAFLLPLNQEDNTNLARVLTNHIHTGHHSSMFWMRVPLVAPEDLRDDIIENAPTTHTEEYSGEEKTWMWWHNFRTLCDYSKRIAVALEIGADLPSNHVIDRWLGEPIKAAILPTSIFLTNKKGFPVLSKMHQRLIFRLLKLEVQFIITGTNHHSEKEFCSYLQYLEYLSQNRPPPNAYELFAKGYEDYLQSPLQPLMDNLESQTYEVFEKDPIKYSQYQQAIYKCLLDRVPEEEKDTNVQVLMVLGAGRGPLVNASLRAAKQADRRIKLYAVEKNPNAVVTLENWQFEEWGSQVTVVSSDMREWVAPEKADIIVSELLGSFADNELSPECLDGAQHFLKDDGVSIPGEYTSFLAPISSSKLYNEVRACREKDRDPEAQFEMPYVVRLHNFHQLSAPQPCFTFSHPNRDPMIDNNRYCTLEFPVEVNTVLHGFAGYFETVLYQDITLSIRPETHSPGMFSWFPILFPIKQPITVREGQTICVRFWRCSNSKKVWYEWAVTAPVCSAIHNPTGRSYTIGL
PRMT5-MTA, sequence (Q9BQA1 whole entry partner): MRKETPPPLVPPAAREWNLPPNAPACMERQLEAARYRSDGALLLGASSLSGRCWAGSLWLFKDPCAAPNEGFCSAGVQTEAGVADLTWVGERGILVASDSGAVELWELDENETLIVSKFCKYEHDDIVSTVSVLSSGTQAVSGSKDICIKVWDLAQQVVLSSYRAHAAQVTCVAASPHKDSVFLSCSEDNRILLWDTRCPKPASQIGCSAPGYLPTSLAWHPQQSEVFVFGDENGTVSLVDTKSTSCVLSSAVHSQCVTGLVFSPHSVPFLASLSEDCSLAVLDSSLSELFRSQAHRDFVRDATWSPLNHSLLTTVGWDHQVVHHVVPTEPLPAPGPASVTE

As to `Cc1cc2cc(C(=O)N(Cc3ccc(C(F)(F)F)cn3)Nc3ncccn3)ccc2nc1N` [Example 59, 2-amino-3-methyl-N'-(pyrimidin-2-yl)-N-((5-(trifluoromethyl)pyridin-2-yl)methyl) quinoline-6-carbohydrazide], the IC50 came out at 257 nM in the assay with HCT116 MTAP KO cells, 4220 nM in the assay with HCT116-WT cells and 2 nM at PRMT5-MTA (read-out: IC50). The “Selectivity HCT 116-WT/ HCT116 MTAP KO” value with HCT116 MTAP KO cells is 16.43.
For `CC1CN(C(=O)c2cc3c(cc2Cl)nc(N)c2cnn(C)c23)N(c2cccc(F)c2F)C1` (stereo not shown) [Example 402, (4-amino-7-chloro-1-methyl-1H-pyrazolo [4,3-c]quinolin-8-yl)(2-(2,3-difluorophenyl)-4-methylpyrazolidin-1-yl)methanone], the half-inhibitory concentration (IC50) in the assay on HCT116 MTAP KO cells was 24 nM; in the assay with HCT116-WT cells, 569 nM; on PRMT5-MTA (read-out: IC50), 6.4 nM. Moreover, in the assay with HCT116 MTAP KO cells, the “Selectivity HCT 116-WT/ HCT116 MTAP KO” value came out at 23.71.
`Cc1cc2nc(N)c3c(c2cc1C(=O)N1CC(C)CN1c1ncccc1F)COC3C` (stereo not shown) [Example 510]: the IC50 in the assay with HCT116 MTAP KO cells came out at 222 nM; in the assay with HCT116-WT cells, 7450 nM; on PRMT5-MTA, 4.8 nM. Moreover, in the assay on HCT116 MTAP KO cells, the “Selectivity HCT 116-WT/ HCT116 MTAP KO” value was 33.55.
For `Cc1cc2cc(C(=O)N(Cc3ccc(C4CCOCC4)cn3)N(C)c3ncccn3)ccc2nc1N` [Example 218, 2-amino-N',3-dimethyl-N'-(pyrimidin-2-yl)-N-((5-(tetrahydro-2H-pyran-4-yl)pyridin-2-yl)methyl)quinoline-6-carbohydrazide], the IC50 is 291 nM with HCT116 MTAP KO cells, 3070 nM with HCT116-WT cells and 7 nM on PRMT5-MTA (read-out: IC50). Moreover, the “Selectivity HCT 116-WT/ HCT116 MTAP KO” value in the assay with HCT116 MTAP KO cells worked out at 10.56.
On the same counts, the results for `C=C1CN(C(=O)c2cc3c(cc2Cl)nc(N)c2cnn(C)c23)N(c2ncccc2F)C1` [Example 433, (4-amino-7-chloro-1-methyl-1H-pyrazolo [4,3-c]quinolin-8-yl)(2-(3-fluoropyridin-2-yl)-4-methylenepyrazolidin-1-yl)methanone] are 33 nM, 1110 nM, 3.8 nM and 33.64.
`Cc1cc2cc(C(=O)N(Cc3ccc(C(F)(F)F)cn3)N(C)c3ccccc3)ccc2nc1N` [Example 75, 2-amino-N',3-dimethyl-N'-phenyl-N-((5-(trifluoromethyl)pyridin-2-yl)methyl)quinoline-6-carbohydrazide]: the half-inhibitory concentration (IC50) was 80 nM in the assay with HCT116 MTAP KO cells, 901 nM in the assay on HCT116-WT cells and 3.1 nM at PRMT5-MTA (read-out: IC50). In addition, the “Selectivity HCT 116-WT/ HCT116 MTAP KO” value with HCT116 MTAP KO cells is 11.26.
On the same counts, the results for `Cn1ncc2c(N)nc3cc(Cl)c(C(=O)N4CC(C(F)(F)F)CN4c4cccc(F)n4)cc3c21` (stereo not shown) [Example 353, (4-amino-7-chloro-1-methyl-1H-pyrazolo [4,3-c]quinolin-8-yl)(2-(6-fluoropyridin-2-yl)-4-(trifluoromethyl)pyrazolidin-1-yl) methanone] are 108 nM, 1820 nM, 6.3 nM and 16.81.
On the same counts, the results for `[2H]C([2H])([2H])n1ncc2c(N)nc3cc(Cl)c(C(=O)N4CC(C)CN4c4ncccc4F)cc3c21` (stereo not shown) [Compound 508, (4-amino-7-chloro-1-(methyl-D3)-1H-pyrazolo[4,3-c]quinolin-8-yl)(2-(3-fluoropyridin-2-yl)-4-methylpyrazolidin-1-yl)meth anone] are 114 nM, 2710 nM, 16.6 nM and 23.78.
For `Cc1cc2nc(N)c3cnn(C)c3c2cc1C(=O)N1CC(C)CN1c1cccc(C#N)n1` (stereo not shown) [Example 365, 6-(2-(4-amino-1,7-dimethyl-1H-pyrazolo [4,3-c]quinoline-8-formyl)-4-methylpyrazolidin-1-yl)pyridinecarbonitrile], the concentration for half-maximal inhibition (IC50) is 35 nM with HCT116 MTAP KO cells, 1690 nM with HCT116-WT cells and 3.2 nM at PRMT5-MTA (read-out: IC50). The “Selectivity HCT 116-WT/ HCT116 MTAP KO” value in the assay with HCT116 MTAP KO cells came out at 48.37.
Consider `Cc1cc2cc(C(=O)N(Cc3ccc(-c4cncs4)cn3)N(C)c3nccc4nccnc34)ccc2nc1N` [Example 183, 2-amino-N',3-dimethyl-N'-(pyrido[3,4-b]pyrazin-5-yl)-N-((5-(thiazol-5-yl)pyridin-2-yl)methyl)quinoline-6-carbohydrazide], for which the IC50 with HCT116 MTAP KO cells is 17 nM; in the assay with HCT116-WT cells, 318 nM; at PRMT5-MTA (read-out: IC50), 3.9 nM. In the assay with HCT116 MTAP KO cells, the “Selectivity HCT 116-WT/ HCT116 MTAP KO” value worked out at 18.71.
In the case of `Cc1cc2nc(N)c3cnn(C)c3c2cc1C(=O)N1CC(C)CN1c1ncc(-c2cncs2)cc1F` (stereo not shown) [Example 481, (4-amino-1,7-dimethyl-1H-pyrazolo[4,3-c]quinolin-8-yl)(2-(3-fluoro-5-(thiazol-5-yl)pyridin-2-yl)-4-methylpyrazolidin-1-yl)methanone], the figures for the IC50 in the assay on HCT116 MTAP KO cells, in the assay on HCT116-WT cells and on PRMT5-MTA (read-out: IC50) were 15 nM, 708 nM and 3.7 nM, respectively. Moreover, the “Selectivity HCT 116-WT/ HCT116 MTAP KO” value in the assay with HCT116 MTAP KO cells worked out at 47.20.
On the same counts, the results for `COc1ccccc1N1CC(C)CN1C(=O)c1cc2c(cc1C)nc(N)c1cnn(C)c12` (stereo not shown) [Example 401, (4-amino-1,7-dimethyl-1H-pyrazolo[4,3-c]quinolin-8-yl)(2-(2-methoxyphenyl)-4-methylpyrazolidin-1-yl)methanone] are 204 nM, over 10000 nM, 3.5 nM and over 49.02.
On the same counts, the results for `Cc1cc2nc(N)c3cnn(C)c3c2cc1C(=O)N1CC(C)CN1c1ncc(-c2cccnc2)cc1F` (stereo not shown) [Example 484, (4-amino-1,7-dimethyl-1H-pyrazolo[4,3-c]quinolin-8-yl)(2-(5-fluoro-[3,3'-bipyridine]-6-yl)-4-methylpyrazolidin-1-yl)metha none] are 15 nM, 836 nM, 6.4 nM and 55.73.
On the same counts, the results for `Cc1cc2cc(C(=O)N(Cc3ccc(C(F)(F)F)cn3)N(C)c3nccc(C#N)n3)ccc2nc1N` [Example 110, 2-amino-N'-(4-cyanopyrimidin-2-yl)-N',3-dimethyl-N-((5-(trifluoromethyl)pyridin-2-yl)methyl)quinoline-6-carbohydrazide] are 172 nM, 2700 nM, 2.5 nM and 15.71.
With `Cc1cc2cc(C(=O)N(Cc3ccc(Br)cn3)N(C)c3ncccn3)ccc2nc1N` [Example 67, 2-amino-N-((5-bromopyridin-2-yl)methyl)-N',3-dimethyl-N'-(pyrimidin-2-yl)quin oline-6-carbohydrazide], the IC50 came out at 40 nM in the assay on HCT116 MTAP KO cells, 1600 nM in the assay with HCT116-WT cells and 1.5 nM on PRMT5-MTA (read-out: IC50). The “Selectivity HCT 116-WT/ HCT116 MTAP KO” value in the assay on HCT116 MTAP KO cells is given as 40.08.
On the same counts, the results for `Cc1cc2cc(C(=O)N(Cc3ccc(C(F)(F)F)cn3)N(C)c3ccccc3F)ccc2nc1N` [Example 111, 2-amino-N'-(2-fluorophenyl)-N',3-dimethyl-N-((5-(trifluoromethyl)pyridin-2-yl)methyl)quinoline-6-carbohydrazide] are 38 nM, 1040 nM, 1.7 nM and 27.47.

Values taken from EP4745134A1 (Jiangsu Yahong Meditech Co., Ltd., priority 2023, dated 2025).
